According to patent US20050209216A1, “Phenyl-and pyridyl-diazaheterocycles having a tnf-modulating activity” (priority 2002, published 2005):
Where a name gives a salt, the structure may show the parent alone.

| melting point | Structure (SMILES) |
| --- | --- |
| 141 to 142 °C | Clc1cccc(N2CC3CCC(C2)N3CCc2ccc3ccncc3c2)n1 |
| 151 to 153 °C | FC(F)(F)c1cccc(N2C3CCC2CN(CCc2ccc4ccncc4c2)C3)c1 (as salt: hydrochloride) (hydrate or solvate) |
| 258 to 260 °C | FC(F)(F)c1cccc(N2CC3CCC(C2)N3CCc2ccc3ccncc3c2)n1 (as salt: hydrochloride) (hydrate or solvate) |
| 158 to 160 °C | FC(F)(F)c1cccc(N2C3CCC2CN(CCc2ccc4ccncc4c2)C3)n1 (as salt: hydrochloride) (hydrate or solvate) |
| 108 to 110 °C | Clc1cccc(N2CCN(CCc3ccc4ccncc4c3)CC2)n1 (as salt: hydrochloride) (hydrate or solvate) [Example 3] |
| 228 to 230 °C | FC(F)(F)c1cccc(N2CCN(CCc3ccc4cccnc4c3)CC2)n1 (as salt: hydrochloride) [Example 11] |
| 108 to 110 °C | FC(F)(F)c1ccc(N2CCN(CCc3ccc4cccnc4c3)CC2)nc1 (as salt: hydrochloride) [Example 12] |
| 163 to 164 °C | FC(F)(F)c1cccnc1N1CCN(CCc2ccc3cccnc3c2)CC1 (as salt: hydrochloride) [Example 13] |
| 97 to 99 °C | FC(F)(F)c1cccc(N2CC3CCC(C2)N3CCc2ccc3ccncc3c2)c1 (as salt: oxalate) |
| 135 to 137 °C | FC(F)(F)c1cccc(N2CCCN(CCc3ccc4ccncc4c3)CC2)c1 (as salt: oxalate) [Example 4] |
| 170 to 172 °C | Clc1cccc(N2CCN(CCc3ccc4cccnc4c3)CC2)n1 (as salt: oxalate) [Example 10] |
